Assay [1] concerns JAK2V617F HUVECs. The experiment in a line: Quantification of VWF in HUVEC supernatant. Format: cell-based, human. Conditions: 24 hours with 100 μM hydroxyurea. As to the method:
Quantification of VWF in HUVEC supernatant and in HUVECs. HUVEC cell were seeded in 12 wells plate (Costar). When they were confluent, they were washed with 500 μL of PBS (Gibco ThermoFisher Scientific) before adding 500 μL of medium not deprived. Experiments were performed in absence or in presence of TNF-alpha (10 ng/ml during 24 hours) (Merck Millipore). After 24 hours, supernatant was removed, centrifuged at 12000 g during 5 minutes and stored at −80° C. To quantify vWF in HUVECs, cells were washed with PBS before adding in wells 500 μL of PBS. Cells were destroyed in wells with scrapper. Liquid was removed and 5 freezing and thawing successions were performed. Finally, the intracellular lysates were centrifuged at 12000 g during 5 minutes and stored at −80° C. As previously published^45, vWF was quantified following this method: […] plate (Greiner, Flat Bottom) were coated with an anti-vWF antibody (DAKO, Les Ulis, France, A0082) diluted at 1/660 in a coating buffer overnight at 4° C. After washing and blocking, sample of HUVEC supernatant and intracellular lysate were put in wells. Standards were realized with a platelet poor plasma from a healthy donor. […] After 2 minutes of coloration, the reaction was blocked with a H2SO4 3M solution and reading was performed at 492 nm with OPTIMA plate reader. […]

The test system of assay [2] is sickle cell mice. Particulars: TNF-alpha treated sickle cell mice; cited from earlier work.
Assay [3] has as its system Pdgfb-iCreERT2;JAK2^V617F/WT mice. The experiment in a line: Intravital microscopy of mesenteric venules (leukocyte rolling and adhesion). The format is in vivo. Conditions: HU 200 mg/kg/day oral gavage 10 days, low dose TNF-alpha. From the text:
(§1) Generation and characterization of Pdgfb-iCreERT2;JAK2^V617F/WT mice. The conditional flexed JAK2 (JAK2V617F/WT) mice were generously provided by J. L Villeval and have been previously described^19. The double-heterozygous Pdgfb-iCreERT2;JAK2^V617F/WT mice were generated by crossing JAK2^V617F/WT mice with Pdgfb-iCreERT2 mice allowing tamoxifen-inducible adult expression of JAK2^V617F in endothelium. Littermate Pdgfb-iCreERT2-negative;JAK2^V617F/WT mice were used as controls. To induce Cre activity in Pdgfb-iCreERT2;JAK2^V617F/WT mice, we used oral gavage of a single dose of 8 mg of tamoxifen. Tamoxifen induction was performed in 5 weeks-old animals. Mutant mice were analysed 2-3 weeks after tamoxifen administration. Ears of adult mice were genotyped by PCR. Haematocrit, hemoglobin level, platelet, and white cells count were determined using an automated counter (scil Vet abc Plus+) on blood collected from the sublingual vein in EDTA containing tubes. […]
Video analysis. Rolling leukocytes were quantitated by counting the number of rhodamin-marked cells passing a given plane perpendicular to the vessel axis in 30 seconds. Adherent leukocytes were quantitated by counting the number of rhodamin-marked cells motionless during 30 seconds. Vessel surface was quantitated to perform the following ratio: adherent cells/vessel surface (number of cells/cm2). […]

The test system is the same in assay [4]. As to the kind of experiment: Mouse model of thrombus formation (low dose TNF-alpha induced lung thrombus formation). The format is in vivo. Particulars: HU 200 mg/kg/day oral gavage 10 days.
Description: as §1
Histology. To quantify thrombus formation in mice, Carstair's staining was performed. […] Thrombus quantification was performed using an optical microscope and pulmonary area was quantitated to perform the following ratio: thrombi number/pulmonary area (number of thrombi/cm2). Three slides by mice were analysed by two independent observers, blindly. […]

Assay [5] deals with JAK2V617F HUVECs. The experiment in a line: In vitro static adhesion on endothelial cells. Particulars: HUVECs pretreated 24 hours with hydroxyurea 100 μM. The format is cell-based, human. As to the method:
Cell culture/Lentivirus transduction. Human umbilical venous endothelial cells (HUVECs, Lonza, Basel, Swiss) were cultured in EGM-2 media (Lonza, CC-3156) supplemented with EGM-2 Single Quots (Lonza, CC-4176). Cells were transduced with GFP lentivirus encoding human JAK2V617F or JAK2WT by adding lentiviral supernatant to the medium and incubating overnight at 37° C. An empty lentivirus encoding only for GFP was used as a negative control. Lentivirus were transduced at a multiplicity of infection of 20, allowing more than 95% of GFP positive cells. Transgene stability was verified after each passage and remaining stable throughout the passages. HUVECs were used for experiments between passage 5 and passage 7.
In vitro static adhesion on endothelial cells. Blood samples were performed from well healthy voluntary witnesses. Blood was diluted with PBS (1/2 dilution) and deposed on lymphocyte separation medium (Pancoll, Dominique Dutscher, Brumath, France) before centrifugation at 450 g during 20 minutes to obtain mononuclear cells (MNC). […] We visualized adherent cells using a fluorescent microscope (AxioObserver, Zeiss, Oberkochen, Germany) and analysed images by ZEN imaging software (Zeiss). Well surface was quantified in order to obtain the following ratio: number of adherent cells/mm2. […]

In assay [6] the target is T1, P-selectin (Homo sapiens, UniProt P16109).
T1 construct: host or cells: sickle cell disease patients (cited clinical trial)
T1 sequence (P16109 42-830): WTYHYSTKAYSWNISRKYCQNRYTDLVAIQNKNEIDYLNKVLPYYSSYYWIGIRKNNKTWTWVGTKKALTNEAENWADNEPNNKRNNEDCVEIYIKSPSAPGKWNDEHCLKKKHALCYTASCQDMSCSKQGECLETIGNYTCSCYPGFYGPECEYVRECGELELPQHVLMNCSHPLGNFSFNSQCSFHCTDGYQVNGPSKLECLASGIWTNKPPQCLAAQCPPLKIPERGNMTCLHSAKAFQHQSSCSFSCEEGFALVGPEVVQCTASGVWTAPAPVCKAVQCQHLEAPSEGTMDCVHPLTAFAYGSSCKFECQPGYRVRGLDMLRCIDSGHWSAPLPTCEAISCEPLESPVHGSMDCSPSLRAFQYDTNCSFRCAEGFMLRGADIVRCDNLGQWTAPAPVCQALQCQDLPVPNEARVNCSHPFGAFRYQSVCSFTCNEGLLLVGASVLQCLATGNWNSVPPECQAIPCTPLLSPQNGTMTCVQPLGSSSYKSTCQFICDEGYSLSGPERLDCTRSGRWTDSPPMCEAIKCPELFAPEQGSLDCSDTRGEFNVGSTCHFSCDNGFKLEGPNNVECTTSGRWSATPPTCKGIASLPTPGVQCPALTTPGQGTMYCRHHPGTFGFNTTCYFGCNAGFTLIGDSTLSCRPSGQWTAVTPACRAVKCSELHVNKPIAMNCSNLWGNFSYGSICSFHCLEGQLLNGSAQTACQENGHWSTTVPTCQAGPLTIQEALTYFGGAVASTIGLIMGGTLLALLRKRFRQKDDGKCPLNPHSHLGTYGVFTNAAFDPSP
Particulars: clinical trial, patients; cited from earlier work.

This is an account of results in patent US20200087403A1, “PHARMACEUTICAL COMPOSITIONS FOR THE TREATMENT OF THROMBOSIS IN PATIENTS SUFFERING FROM A MYELOPROLIFERATIVE NEOPLASM” (INSERM (INSTITUT NATIONAL DE LA SANTÉ ET DE LA RECHERCHE …, priority 2017, published 2020).

`NC(=O)NO` [hydroxyurea]: the “vWF concentrations in the supernatant of JAK2V617F HUVECs” value in assay [1] is “decreased”. The “leukocyte rolling in the microvasculature” value in assay [2] was “reduction”. In assay [3], the leukocyte adhesion entry is reported as “reduction” and the leukocyte rolling result is “reduction”. In assay [4], the “thrombus formation in lungs” value was “significant inhibition”. The “neutrophil adhesion on JAK2V617F HUVECs” value in assay [5] was “significant reduction”.

B1: crizanlizumab: anti-P-selectin antibody, SEG101 also named crizanlizumab (antibody, chains of the INN, looked up, V domains shown)
VH: QVQLVQSGAEVKKPGASVKVSCKVSGYTFTSYDINWVRQAPGKGLEWMGWIYPGDGSIKYNEKFKGRVTMTVDKSTDTAYMELSSLRSEDTAVYYCARRGEYGNYEGAMDYWGQGTLVTVSS
VL: DIQMTQSPSSLSASVGDRVTITCKASQSVDYDGHSYMNWYQQKPGKAPKLLIYAASNLESGVPSRFSGSGSGTDFTLTISSLQPEDFATYYCQQSDENPLTFGGGTKVEIK
As for B1, the “pain crises in sickle cell disease” value in assay [6] is on record as “efficiently prevented”.
